According to the supplement of paper PMC10883282:
± gives the standard deviation of the averaged measurements.

System: SYO-1
Assay: relative viability vs DMSO control (72 h) (fraction); higher = more viable cells
Summary of the method: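 After seeding at densities set for 80–90% confluence in 384-well plates, sarcoma cell lines waited 24 h before 2.5 µl of serially diluted compound was added. Source plates held 10 mM down to 0.0002 mM. Plates were incubated 72 h at 37 °C with 5% CO2, with 0.1% DMSO vehicle and a 5 µM positive control, and relative viability was taken from ATPLite as percent growth averaged over up to triplicate wells, with 1 set as full and 0 as none.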

With `Cc1ccc(F)c(NC(=O)Nc2ccc(-c3cccc4[nH]nc(N)c34)cc2)c1` [Linifanib] the relative viability (0.00017 µM) was 0.98 ± 0.036, the relative viability (0.00051 µM) was 0.968 ± 0.087 and the relative viability (0.00152 µM) was 0.957 ± 0.066. It also gave a relative viability (0.00457 µM) of 0.941 ± 0.035, a relative viability (0.01372 µM) of 0.906 ± 0.049 and a relative viability (0.04115 µM) of 0.845 ± 0.085. The relative viability (0.1235 µM) was 0.76 ± 0.13, the relative viability (0.3704 µM) was 0.751 ± 0.093 and the relative viability (1.111 µM) was 0.769 ± 0.016. For the same compound, the relative viability (3.333 µM) was 0.753 ± 0.055 and the relative viability (10 µM) was 0.711 ± 0.031.

`CNC(=O)c1ccc(-c2cnc3ncc(Cc4ccc5ncccc5c4)n3n2)cc1F` [Capmatinib] gave a relative viability (0.00017 µM) of 0.956 ± 0.039, a relative viability (0.00051 µM) of 0.962 ± 0.044 and a relative viability (0.00152 µM) of 0.966 ± 0.028. The relative viability (0.00457 µM) was 0.968 ± 0.015, the relative viability (0.01372 µM) was 0.97 ± 0.03 and the relative viability (0.04115 µM) was 0.961 ± 0.042. For the same compound, the relative viability (0.1235 µM) was 0.97 ± 0.033, the relative viability (0.3704 µM) was 0.967 ± 0.026 and the relative viability (1.111 µM) was 0.994 ± 0.023. It also gave a relative viability (3.333 µM) of 1.03 ± 0.03 and a relative viability (10 µM) of 1.01 ± 0.067.

`CN1CCC(COc2cnc(-c3cccc(Cn4nc(-c5cccc(C#N)c5)ccc4=O)c3)nc2)CC1` [Tepotinib] showed a relative viability (0.00017 µM) of 1 ± 0.042, a relative viability (0.00051 µM) of 0.983 ± 0.042 and a relative viability (0.00152 µM) of 0.974 ± 0.063. It also gave a relative viability (0.00457 µM) of 0.919 ± 0.061, a relative viability (0.01372 µM) of 0.946 ± 0.05 and a relative viability (0.04115 µM) of 0.912 ± 0.038. For the same compound, the relative viability (0.1235 µM) was 0.916 ± 0.031, the relative viability (0.3704 µM) was 0.931 ± 0.06 and the relative viability (1.111 µM) was 0.884 ± 0.037. The relative viability (3.333 µM) was 0.824 ± 0.033 and the relative viability (10 µM) was 0.608 ± 0.055.

`N#CC[C@H](C1CCCC1)n1cc(-c2ncnc3[nH]ccc23)cn1` [Ruxolitinib] gave a relative viability (0.00017 µM) of 0.969 ± 0.039, a relative viability (0.00051 µM) of 0.975 ± 0.034 and a relative viability (0.00152 µM) of 0.958 ± 0.035. It also gave a relative viability (0.00457 µM) of 0.945 ± 0.029, a relative viability (0.01372 µM) of 0.964 ± 0.026 and a relative viability (0.04115 µM) of 0.969 ± 0.059. The relative viability (0.1235 µM) was 0.931 ± 0.043, the relative viability (0.3704 µM) was 0.941 ± 0.095 and the relative viability (1.111 µM) was 0.945 ± 0.048. It also gave a relative viability (3.333 µM) of 0.892 ± 0.037 and a relative viability (10 µM) of 0.641 ± 0.014.

`CC(C)(C)c1cc(NC(=O)Nc2ccc(-c3cn4c(n3)sc3cc(OCCN5CCOCC5)ccc34)cc2)no1` [Quizartinib] was tested, and the relative viability (0.00017 µM) was 0.978 ± 0.017, the relative viability (0.00051 µM) was 0.963 ± 0.02 and the relative viability (0.00152 µM) was 0.973 ± 0.044. It also gave a relative viability (0.00457 µM) of 0.943 ± 0.035, a relative viability (0.01372 µM) of 0.935 ± 0.034 and a relative viability (0.04115 µM) of 0.9229 ± 0.0014. It also gave a relative viability (0.1235 µM) of 0.873 ± 0.015, a relative viability (0.3704 µM) of 0.715 ± 0.043 and a relative viability (1.111 µM) of 0.67 ± 0.046. It also gave a relative viability (3.333 µM) of 0.646 ± 0.034 and a relative viability (10 µM) of 0.627 ± 0.044.

In the case of `COc1c(OCCCN2CCOCC2)ccc2c1N=C(NC(=O)c1cnc(N)nc1)N1CCN=C21` [Copanlisib], the relative viability (0.00017 µM) is reported as 1 ± 0.011, the relative viability (0.00051 µM) is reported as 0.945 ± 0.023 and the relative viability (0.00152 µM) is reported as 0.911 ± 0.051. The relative viability (0.00457 µM) was 0.79 ± 0.06, the relative viability (0.01372 µM) was 0.754 ± 0.041 and the relative viability (0.04115 µM) was 0.693 ± 0.02. The relative viability (0.1235 µM) was 0.651 ± 0.052, the relative viability (0.3704 µM) was 0.52 ± 0.02 and the relative viability (1.111 µM) was 0.374 ± 0.012. The relative viability (3.333 µM) was 0.171 ± 0.0084 and the relative viability (10 µM) was 0.0829 ± 0.006.

In the case of `Cc1ccc(NC(=O)c2ccc(CN3CCN(C)CC3)cc2)cc1Nc1nc(-c2cccnc2)cs1` [Masitinib], the relative viability (0.00017 µM) is reported as 1.04 ± 0.023, the relative viability (0.00051 µM) is reported as 1.02 ± 0.02 and the relative viability (0.00152 µM) is reported as 1.01 ± 0.027. The relative viability (0.00457 µM) was 1.01 ± 0.026, the relative viability (0.01372 µM) was 0.974 ± 0.026 and the relative viability (0.04115 µM) was 0.916 ± 0.039. For the same compound, the relative viability (0.1235 µM) was 0.801 ± 0.021, the relative viability (0.3704 µM) was 0.676 ± 0.032 and the relative viability (1.111 µM) was 0.553 ± 0.038. It also gave a relative viability (3.333 µM) of 0.242 ± 0.033 and a relative viability (10 µM) of -0.0235 ± 0.0061.

Compound `Cn1cc(-c2cc3c(N4CCN(c5ncc([C@@](C)(N)c6ccc(F)cc6)cn5)CC4)ncnn3c2)cn1` [Avapritinib] has a relative viability (0.00017 µM) of 0.92 ± 0.012, a relative viability (0.00051 µM) of 0.898 ± 0.031 and a relative viability (0.00152 µM) of 0.882 ± 0.057. It also gave a relative viability (0.00457 µM) of 0.844 ± 0.087, a relative viability (0.01372 µM) of 0.807 ± 0.1 and a relative viability (0.04115 µM) of 0.718 ± 0.054. For the same compound, the relative viability (0.1235 µM) was 0.629 ± 0.053, the relative viability (0.3704 µM) was 0.568 ± 0.03 and the relative viability (1.111 µM) was 0.534 ± 0.059. It also gave a relative viability (3.333 µM) of 0.439 ± 0.039 and a relative viability (10 µM) of 0.319 ± 0.023.

For `O=C(Cc1ccc(-c2ccc(OCCN3CCOCC3)cc2)cn1)NCc1ccccc1` [KX2-391], the relative viability (0.00017 µM) was 1 ± 0.039, the relative viability (0.00051 µM) was 0.973 ± 0.038 and the relative viability (0.00152 µM) was 0.958 ± 0.017. The relative viability (0.00457 µM) was 0.952 ± 0.042, the relative viability (0.01372 µM) was 0.917 ± 0.034 and the relative viability (0.04115 µM) was 0.673 ± 0.027. For the same compound, the relative viability (0.1235 µM) was 0.295 ± 0.013, the relative viability (0.3704 µM) was 0.309 ± 0.011 and the relative viability (1.111 µM) was 0.324 ± 0.015. The relative viability (3.333 µM) was 0.324 ± 0.011 and the relative viability (10 µM) was 0.357 ± 0.011.
